Biological target: T1, TXNRD1 (cytosolic thioredoxin reductase 1) (Rattus norvegicus, UniProt O89049)
T1 sequence (O89049 1-499): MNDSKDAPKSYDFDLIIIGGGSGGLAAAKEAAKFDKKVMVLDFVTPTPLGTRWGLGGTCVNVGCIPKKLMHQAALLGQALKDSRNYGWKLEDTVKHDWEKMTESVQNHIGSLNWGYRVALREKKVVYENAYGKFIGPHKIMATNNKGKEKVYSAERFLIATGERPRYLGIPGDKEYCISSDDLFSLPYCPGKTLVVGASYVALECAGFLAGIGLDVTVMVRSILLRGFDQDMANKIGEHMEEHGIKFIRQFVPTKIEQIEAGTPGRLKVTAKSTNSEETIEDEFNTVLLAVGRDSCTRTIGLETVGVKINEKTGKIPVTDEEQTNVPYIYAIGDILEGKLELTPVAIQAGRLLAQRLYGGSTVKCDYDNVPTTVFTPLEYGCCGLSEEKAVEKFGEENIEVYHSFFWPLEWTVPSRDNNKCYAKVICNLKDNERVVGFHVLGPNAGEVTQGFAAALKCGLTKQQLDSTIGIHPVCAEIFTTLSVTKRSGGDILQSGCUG
Assay: ITC
Assay type: binding

- Kd: 83.9 nM
SMILES: C=C1C(=O)O[C@@H]2C[C@@]3(C)CCCC(=C)[C@@H]3C[C@H]12 [IAL, Isoalantolactone]
